We go through 23 compounds from paper PMC8081377 (Mutagenesis, 2021).

Series [1] relates to EpiDerm™ EPI-200-MNA skin tissues.
Series [2] deals with reconstructed human skin (RS) tissues. Particulars: cited from earlier work; for detection of DNA damage, RS Comet assay versus RSMN assay: direct treatment with genotoxic metabolites of 2-AAF.
The conditions of series [3]: carcinogen classification; cited from earlier work.
For series [4], the system named is EpiDerm™ EPI-200-MNA skin tissues. This is another data set of the same source.
The test system of series [5] is RS tissues. Particulars: cited from earlier work; for RSMN result with the 72-h protocol: contract research lab.
The mark [6] stands for this setting: three treatments, vs solvent control.
Setting [7] is: two treatments, vs solvent control.
[8] abbreviates: % VCC or % BN, lab(s) as stated in the text.
[9] abbreviates: lack of excessive cytotoxicity, 48-h protocol.

Where a name gives a salt, the structure may show the parent alone. Read-outs that look alike come from different tables or passages of the source.

In the case of `Cn1c(N)nc2c3cccnc3ccc21` [2-Amino-3-methylimidazo[4,5-f]quinolone], the “% MN-BN response in individual experiment(s), Lab A, 72-h protocol” value (“% MN-BN response … Lab A, 72-h protocol” for short) in series [1] (setting [6]) is recorded as “Significant increases”. Also, the “% MN-BN response in individual experiment(s), Lab A, 48-h protocol” value (from here on “% MN-BN response … Lab A, 48-h protocol”) in series [1] (setting [7]) is listed as “no increase”. The “detection in the RS Comet assay” value in series [2] (after multiple treatments) is given as “not detected”. Besides, the IARC class in series [3] was 2A. Moreover, the “% BN (excessive cytotoxicity)” value in series [4] (at ≥150 µg/cm^2, 48-h protocol, Lab A) was less than 20 % BN.
As for `O=[N+]([O-])c1ccc(O)cc1` [4-Nitrophenol], in series [1] (overall call), the “classification in the RSMN assay by Lab A” value (from here on “classification … by Lab A”) is “negative”, the “classification in the RSMN assay by Lab B” value (shortened to “classification … by Lab B”) was “negative”, the “classification in the RSMN assay by Lab C” value (shortened to “classification … by Lab C”) is given as “negative” and the “classification in the RSMN assay by Lab D” value (shortened to “classification … by Lab D”) is on record as “negative”. In addition, in series [1] (setting [6]), the “% MN-BN response … Lab A, 72-h protocol” value is on record as “negative” and the “% MN-BN response in individual experiment(s), Lab C, 72-h protocol” value is listed as “negative”. Also, in series [1] (setting [7]), the “% MN-BN response … Lab A, 48-h protocol” value is “negative”; the “% MN-BN response in individual experiment(s), Lab B, 48-h protocol” value (“% MN-BN response … Lab B, 48-h protocol” for short) is reported as “did not find any evidence for an increase”; the “% MN-BN response in individual experiment(s), Lab C, 48-h protocol” value (from here on “% MN-BN response … Lab C, 48-h protocol”) is given as “negative”; the “% MN-BN response in individual experiment(s), Lab D, 48-h protocol” value (from here on “% MN-BN response … Lab D, 48-h protocol”) is “did not find any evidence for an increase”. In addition, the “top/maximum dose tested, limited by excessive or strong cytotoxicity” value (from here on “top/maximum dose tested, limited”) in series [4] (setting [8]) is 20–48 µg/cm^2.
For `C1CC2OC2CC1C1CO1` (centres unmarked) [4-Vinyl-1-cyclohexene diepoxide], in series [1] (overall call), the “classification … by Lab A” value is “positive”, the “classification … by Lab B” value is recorded as “positive” and the “classification … by Lab C” value is “positive”. The “% MN-BN response in individual experiment(s), Lab C, 72-h protocol” value in series [1] (setting [6]) is “equivocal response”. Moreover, in series [1] (setting [7]), the “% MN-BN response … Lab B, 48-h protocol” value is on record as “significant increase”; the “% MN-BN response … Lab C, 48-h protocol” value is “negative”; the “% MN-BN response … Lab D, 48-h protocol” value was “negative”. In addition, in series [4] (setting [8]), the “top/maximum dose tested, limited” value amounted to 64 µg/cm^2.
For the compound `Cc1c2ccccc2c(C)c2c1ccc1ccccc12` [7,12-Dimethylbenz[a]thracene (DMBA), 7,12-Dimethylbenz[a]anthracene], in series [1], the “% MN-BN response … Lab A, 48-h protocol” value is “did not increase”; the “% MN-BN response … Lab A, 72-h protocol” value is listed as “did not induce an increase”; the “classification … by Lab A” value is recorded as “negative”. The “result in a previous RSMN study” value in series [5] (% VCC not used as cytotoxicity measure, higher doses tested) was “positive”. The “top dose, limited by precipitation on the surface of the skin tissues” value in series [4] (lab(s) as stated in the text) is 240 µg/cm^2.
Turning to `Oc1cccc2cccnc12` [8-Hydroxyquinoline], the “classification … by Lab D” value in series [1] is “negative”. Also, the “top/maximum dose tested, limited” value in series [4] (human) stood at 48 µg/cm^2.
Regarding `CC1(C)S[C@@H]2[C@H](NC(=O)[C@H](N)c3ccccc3)C(=O)N2[C@H]1C(=O)O` [Ampicillin sodium salt], in series [1] (overall call), the “classification … by Lab A” value was “negative”. Further, the “% MN-BN response … Lab A, 48-h protocol” value in series [1] (setting [7]) is “no significant increases”. For the same compound, the “maximum dose tested without exceeding the cytotoxicity thresholds” value in series [4] (setting [9]) is listed as 1600 µg/cm^2.
For the compound `Cc1cn([C@H]2C[C@H](N=[N+]=[N-])[C@@H](CO)O2)c(=O)[nH]c1=O` [Azidothymidine (AZT), Azidothymidine], the “classification … by Lab A” value in series [1] (overall call) is reported as “positive”. Also, in series [1] (setting [6]), the “% MN-BN response … Lab A, 72-h protocol” value is recorded as “significant increases”. In addition, the “% MN-BN response … Lab A, 48-h protocol” value in series [1] (setting [7]) was “significant increase”. The “top/maximum dose tested, limited” value in series [4] (human) is on record as 700 µg/cm^2.
In the case of `c1ccc2c(c1)cc1ccc3cccc4ccc2c1c34` [B[a]P], the “RSMN result with the 72-h protocol” value in series [5] was “positive results”.
Regarding `CCC(=O)OCC(=O)[C@@]1(OC(=O)CC)[C@@H](C)C[C@H]2[C@@H]3CCC4=CC(=O)C=C[C@]4(C)[C@@]3(Cl)[C@@H](O)C[C@@]21C` [Beclomethasone dipropionate], in series [1] (overall call), the “classification … by Lab B” value was “negative”. In series [1] (setting [7]), the “% MN-BN response … Lab B, 48-h protocol” value is recorded as “no significant increases”. The “maximum dose tested without exceeding the cytotoxicity thresholds” value in series [4] (setting [9]) amounted to 1600 µg/cm^2.
For the compound `COc1cc2c(c(OC)c1OC)-c1ccc(OC)c(=O)cc1[C@@H](NC(C)=O)CC2` [Colchicine], in series [1] (overall call), the “classification … by Lab A” value was “positive” and the “classification … by Lab C” value was “positive”. Moreover, in series [1] (setting [7]), the “% MN-BN response … Lab A, 48-h protocol” value is “highly significant increases” and the “% MN-BN response … Lab C, 48-h protocol” value is reported as “highly significant increases”. Besides, the “top/maximum dose tested, limited” value in series [4] (setting [8]) stood at 0.03 µg/cm^2.
`COc1cc(/C=C/C(=O)CC(=O)/C=C/c2ccc(O)c(OC)c2)ccc1O` [Curcumin]: the “classification … by Lab B” value in series [1] (overall call) was “positive”. Also, the “top/maximum dose tested, limited” value in series [4] (setting [8]) is 160 µg/cm^2.
Turning to `OC[C@@H](O)[C@@H](O)[C@H](O)[C@H](O)CO` [D-Mannitol], in series [1] (overall call), the “classification … by Lab B” value is “negative” and the “classification … by Lab D” value is “negative”. Further, in series [1] (setting [7]), the “% MN-BN response … Lab B, 48-h protocol” value is “no significant increase” and the “% MN-BN response … Lab D, 48-h protocol” value was “no significant increase”. Also, the “maximum dose tested without exceeding the cytotoxicity thresholds” value in series [4] (setting [9]) is reported as 1600 µg/cm^2.
For the compound `O=C(O)Cc1ccccc1Nc1c(Cl)cccc1Cl` [Diclofenac], in series [1] (overall call), the “classification … by Lab A” value is listed as “positive”, the “classification … by Lab B” value is reported as “positive” and the “classification … by Lab D” value is recorded as “positive”. In addition, the “apoptotic cells alongside the increase of micronuclei” value in series [1] (reported by Lab A) is listed as “strong increase of apoptotic cells”. Besides, the “% MN-BN response … Lab A, 48-h protocol” value in series [1] (setting [7]) is given as “significant increases”. Besides, the “top/maximum dose tested, limited” value in series [4] (setting [8]) is recorded as 50–80 µg/cm^2.
Regarding `CCc1cc(C(N)=S)ccn1` [Ethionamide], in series [1], the “% MN-BN response … Lab A, 48-h protocol” value is recorded as “negative”; the “% MN-BN response … Lab B, 48-h protocol” value is “negative”; the “% MN-BN response in individual experiment(s), Lab B, 72-h protocol” value was “negative”; the “% MN-BN response … Lab C, 48-h protocol” value is on record as “negative”. In addition, in series [1], the “classification … by Lab A” value is recorded as “negative”, the “classification … by Lab B” value was “negative” and the “classification … by Lab C” value is given as “negative”. In series [4] (human), the “% VCC or BN (cytotoxicity thresholds exceeded)” value is < 40 % VCC or BN and the “top/maximum dose tested, limited” value is recorded as 30–160 µg/cm^2.
In the case of `CCOS(C)(=O)=O` [Ethyl methanesulfonate (EMS), Ethyl methanesulfonate], in series [1] (overall call), the “classification … by Lab A” value is “positive” and the “classification … by Lab C” value was “positive”. For the same compound, the “% MN-BN response … Lab A, 72-h protocol” value in series [1] (setting [6]) was “significant increase in the % MN-BN at multiple doses”. Also, in series [1] (setting [7]), the “% MN-BN response … Lab C, 48-h protocol” value was “clear and dose-dependent increase”. Also, the “top/maximum dose tested, limited” value in series [4] (setting [8]) is 360 µg/cm^2.
With `COS(C)(=O)=O` [Methyl methanesulfonate (MMS), Methyl methanesulfonate], the “classification … by Lab B” value in series [1] (overall call) is reported as “positive”. Further, in series [4] (setting [8]), the “top/maximum dose tested, limited” value is recorded as 16 µg/cm^2.
Regarding `CC(=O)N(O)c1ccc2c(c1)Cc1ccccc1-2` [N-hydroxy-2-acetylaminofluorene], in series [2], the “detection of DNA damage, RS Comet assay versus RSMN assay” value is given as “more efficiently detected in the RS Comet assay than in the RSMN assay”.
As for `ONc1ccc2c(c1)Cc1ccccc1-2` [N-hydroxy-2-aminofluorene], in series [2], the “detection of DNA damage, RS Comet assay versus RSMN assay” value is reported as “more efficiently detected in the RS Comet assay than in the RSMN assay”.
Regarding `O=C1CN(/N=C/c2ccc([N+](=O)[O-])o2)C(=O)N1` [Nitrofurantoin], the “classification … by Lab B” value in series [1] is “negative”. In addition, in series [4] (human), the “maximum dose tested without exceeding the cytotoxicity thresholds” value was determined as 1600 µg/cm^2 and the “top/maximum dose tested, limited” value came to 48 µg/cm^2.
`c1ccc2c(c1)ccc1ccccc12` [Phenanthrene]: in series [1], the “% MN-BN response … Lab B, 48-h protocol” value is given as “negative”; the “% MN-BN response in individual experiment(s), Lab B, 72-h protocol” value was “no evidence for an increase”; the “% MN-BN response … Lab C, 48-h protocol” value is “negative”; the “% MN-BN response … Lab D, 48-h protocol” value is reported as “negative”. In addition, in series [1], the “classification … by Lab A” value is “positive”, the “classification … by Lab B” value is recorded as “negative”, the “classification … by Lab C” value is “negative” and the “classification … by Lab D” value is “negative”. Moreover, in series [4] (lab(s) as stated in the text), the “top dose, limited by precipitation on the surface of the skin tissues” value is reported as 200–400 µg/cm^2. Moreover, the “doses at which precipitation was seen” value in series [4] (second 48-h experiment, Lab A) is recorded as no less than 400 µg/cm^2.
Regarding `CCCOC(=O)c1cc(O)c(O)c(O)c1` [Propyl gallate], in series [1], the “% MN-BN response … Lab B, 48-h protocol” value is on record as “did not significantly increase” and the “classification … by Lab B” value was “negative”. For the same compound, in series [4] (setting [8]), the “top/maximum dose tested, limited” value is 48 µg/cm^2.
Consider `CC(=O)O[C@H]1C(=O)[C@@]2(C)[C@H]([C@H](OC(=O)c3ccccc3)[C@]3(O)C[C@H](OC(=O)[C@H](O)[C@@H](NC(=O)c4ccccc4)c4ccccc4)C(C)=C1C3(C)C)[C@]1(OC(C)=O)CO[C@@H]1C[C@@H]2O` [Taxol], for which, in series [1] (overall call), the “classification … by Lab C” value is reported as “positive”. Also, the “% MN-BN response … Lab C, 48-h protocol” value in series [1] (setting [7]) was “clear and dose-dependent increase”. Moreover, the “top/maximum dose tested, limited” value in series [4] (setting [8]) is reported as 1.6 µg/cm^2.
As to `O=P1(N(CCCl)CCCl)NCCCO1` (centres unmarked) [cyclophosphamide], in series [5], the “RSMN result with the 72-h protocol” value is recorded as “positive results”.
